Test results: article PMC8000079, “Targeting GABAC Receptors Improves Post-Stroke Motor Recovery” (Brain Sciences, 2021)

Experiments:
Assay type in all cases: cell-based
ρ2 GABAC receptor [1] = biological target: T1, ρ2 GABAC receptor (Homo sapiens, UniProt P28476); experiment: two-electrode voltage clamp in Xenopus oocytes, shift of GABA concentration-response curve; settings: read-out: Kd
T1 construct: gene GABRR2; human recombinant ρ2 GABAC receptors expressed in Xenopus oocytes

α5β2γ2 GABAA receptor = biological target: T2, α5β2γ2 GABAA receptor (Homo sapiens, UniProt P31644+P47870); experiment: two-electrode voltage clamp in Xenopus oocytes, % inhibition of GABA ([…]) current at […]
T2 construct: gene GABRA5; α5β2γ2 receptors expressed in Xenopus oocytes; with β2 and γ2 GABAA subunits

ρ2 GABAC receptor [2] = biological target: T1, ρ2 GABAC receptor; experiment: two-electrode voltage clamp in Xenopus oocytes, agonist dose-response

T1 sequence (P28476 21-465): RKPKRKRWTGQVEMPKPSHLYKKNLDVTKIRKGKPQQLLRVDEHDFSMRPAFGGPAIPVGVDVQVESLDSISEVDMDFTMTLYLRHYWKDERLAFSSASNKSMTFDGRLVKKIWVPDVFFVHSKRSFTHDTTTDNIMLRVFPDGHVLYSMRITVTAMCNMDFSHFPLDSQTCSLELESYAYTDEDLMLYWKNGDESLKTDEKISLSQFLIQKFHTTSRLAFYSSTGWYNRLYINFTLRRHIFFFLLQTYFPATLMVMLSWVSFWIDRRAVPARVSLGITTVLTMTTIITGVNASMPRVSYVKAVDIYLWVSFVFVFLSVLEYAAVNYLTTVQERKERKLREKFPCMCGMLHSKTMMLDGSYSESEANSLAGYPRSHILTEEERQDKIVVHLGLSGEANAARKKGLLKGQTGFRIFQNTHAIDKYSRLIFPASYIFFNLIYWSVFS
T2 sequence (P47870 26-512): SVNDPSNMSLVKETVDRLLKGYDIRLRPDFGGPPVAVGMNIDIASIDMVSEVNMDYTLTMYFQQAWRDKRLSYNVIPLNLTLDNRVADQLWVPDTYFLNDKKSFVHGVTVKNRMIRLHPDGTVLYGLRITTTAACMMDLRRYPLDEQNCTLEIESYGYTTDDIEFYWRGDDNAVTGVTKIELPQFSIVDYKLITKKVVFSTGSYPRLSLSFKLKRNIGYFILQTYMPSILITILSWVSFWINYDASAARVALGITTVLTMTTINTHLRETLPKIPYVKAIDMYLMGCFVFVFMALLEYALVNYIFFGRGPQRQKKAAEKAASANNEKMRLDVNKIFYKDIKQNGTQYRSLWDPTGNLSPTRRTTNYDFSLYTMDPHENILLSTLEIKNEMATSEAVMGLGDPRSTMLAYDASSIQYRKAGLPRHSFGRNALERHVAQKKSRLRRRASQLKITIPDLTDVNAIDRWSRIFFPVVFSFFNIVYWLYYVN
T2 sequence (P18507 40-475, further chain): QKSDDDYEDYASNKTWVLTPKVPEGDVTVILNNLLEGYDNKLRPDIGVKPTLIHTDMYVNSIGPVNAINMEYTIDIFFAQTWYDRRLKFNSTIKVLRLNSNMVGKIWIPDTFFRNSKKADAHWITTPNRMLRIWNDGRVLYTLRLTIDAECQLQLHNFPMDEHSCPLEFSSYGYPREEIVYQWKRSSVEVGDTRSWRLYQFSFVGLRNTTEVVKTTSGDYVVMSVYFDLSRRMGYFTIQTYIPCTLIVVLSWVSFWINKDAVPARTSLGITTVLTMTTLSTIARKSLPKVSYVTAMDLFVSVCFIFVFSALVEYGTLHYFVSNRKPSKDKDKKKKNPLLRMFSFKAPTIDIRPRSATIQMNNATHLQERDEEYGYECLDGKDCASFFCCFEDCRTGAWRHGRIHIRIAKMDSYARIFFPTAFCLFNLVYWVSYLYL
T2 sequence (P31644 32-462): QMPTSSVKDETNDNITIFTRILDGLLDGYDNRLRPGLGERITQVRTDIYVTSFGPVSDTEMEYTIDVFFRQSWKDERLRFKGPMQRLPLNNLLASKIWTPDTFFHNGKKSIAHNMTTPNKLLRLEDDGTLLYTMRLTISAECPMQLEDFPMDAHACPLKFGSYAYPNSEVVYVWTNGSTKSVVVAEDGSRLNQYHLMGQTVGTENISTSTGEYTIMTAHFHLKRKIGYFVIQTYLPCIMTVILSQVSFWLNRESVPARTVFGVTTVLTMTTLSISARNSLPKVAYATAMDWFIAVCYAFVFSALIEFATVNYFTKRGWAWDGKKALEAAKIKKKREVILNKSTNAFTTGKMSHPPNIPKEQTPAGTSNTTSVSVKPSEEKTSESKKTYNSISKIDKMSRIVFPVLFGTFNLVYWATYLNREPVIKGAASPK

Row | Structure (SMILES) | Kb (ρ2 GABAC receptor [1]) | inhibition at 100 µM (α5β2γ2 GABAA receptor) | EC50 (ρ2 GABAC receptor [2])
1 | CCCCP(=O)(O)C1=CC[C@@H](N)C1 [(R)-4-ACPBPA, (R)-4-amino-cyclopent-1-enyl butylphosphinic acid] | 6 µM | 36 ± 2% | –
2 | CCCCP(=O)(O)C1=CC[C@H](N)C1 [(S)-4-ACPBPA, (S)-4-amino-cyclopent-1-enyl butylphosphinic acid] | 10.5 µM | 37 ± 1.5% | –
3 | NCCCC(=O)O [GABA, γ-aminobutyric acid] | – | – | ~ 1 µM
